In PubChem BioAssay (NCI) one finds GI50 and TGI data, which are given here for 14 molecules.

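Exposure lasted 48 hours, with cells grown in 96-well plates and compounds tested at five concentrations. GI50 is the concentration that inhibits growth by half. TGI: total growth inhibition.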

Test systems include MDA-MB-231 breast; HS 578T breast; KM12 colon; BT-549 breast; SNB-75 CNS; LOX IMVI melanoma; XF 498 CNS; LXFL 529 NSCLC; SNB-78 CNS; HOP-18 NSCLC.
What all share (assay): growth of human tumour cells (NCI), 48 h

As for `COc1cc2c3c(n(CCCNC(=O)OCC4c5ccccc5-c5ccccc54)c(=O)c2cc1OC)-c1cc2c(cc1/C3=C\CCNC(=O)OCC1c3ccccc3-c3ccccc31)OCO2`, the GI50 was above 19 µM with MDA-MB-231 breast; 1.29 µM in the test with HS 578T breast; above 27.9 µM in the test with KM12 colon; 12.4 µM in the test with BT-549 breast; above 50 µM in the test with SNB-75 CNS; above 22.5 µM in the test with LOX IMVI melanoma. Besides, the TGI in the test on MDA-MB-231 breast is above 44 µM; in the test with HS 578T breast it was 10.2 µM; with KM12 colon it was above 50 µM; with BT-549 breast it was above 50 µM; with SNB-75 CNS, above 50 µM; with LOX IMVI melanoma, above 50 µM.
For the molecule `Cc1cc(Cl)ccc1N=C1NC(=O)C(CC(=O)Nc2ccc([N+](=O)[O-])cc2[N+](=O)[O-])S1` (stereo unspecified), the TGI with XF 498 CNS is 53.6 µM; in the test on KM12 colon, above 100 µM; in the test on LXFL 529 NSCLC it was 47.5 µM; with SNB-78 CNS, 73.6 µM; in the test on SNB-75 CNS, 44.2 µM; with LOX IMVI melanoma it was above 100 µM.
Take `Oc1cccnc1CN1CCCCC1`: the TGI in the test on MDA-MB-231 breast, with HS 578T breast, in the test on KM12 colon, in the test on BT-549 breast, in the test with SNB-75 CNS and with LOX IMVI melanoma was above 100 µM throughout.
Turning to `CCCCCCCC/C=C/CCCCCCCC(=O)OC[C@H]1O[C@@H](n2ccc(N)nc2=O)C(F)(F)[C@@H]1O`, the GI50 is 7.98 µM in the test on MDA-MB-231 breast; above 59.9 µM with HS 578T breast; above 100 µM with KM12 colon; 0.36 µM in the test on SNB-75 CNS; 0.0418 µM in the test on LOX IMVI melanoma. The TGI in the test with MDA-MB-231 breast is above 100 µM; with HS 578T breast, above 100 µM; with KM12 colon it was above 100 µM; with BT-549 breast it was above 60.6 µM; in the test on SNB-75 CNS, above 66.1 µM; in the test on LOX IMVI melanoma it was above 35.9 µM.
For `O=C(NC1=CC(=O)c2ccccc2C1=O)c1ccccc1`, the GI50 with MDA-MB-231 breast was 0.421 µM; in the test with HS 578T breast, 1.09 µM; with KM12 colon it was 0.353 µM; in the test with BT-549 breast, 0.706 µM; with SNB-75 CNS, 0.373 µM; in the test with LOX IMVI melanoma, 1.08 µM. In addition, the TGI with MDA-MB-231 breast came to 1.76 µM; in the test on HS 578T breast, 71.9 µM; in the test with KM12 colon it was 11.5 µM; with BT-549 breast, 14.9 µM; with SNB-75 CNS, 8.1 µM; in the test on LOX IMVI melanoma, 2.63 µM.
On to `Nn1c(=O)n(Cc2ccccc2)n(-c2ccccc2)c1=O`, for which the TGI in the test on XF 498 CNS, in the test on KM12 colon, with LXFL 529 NSCLC, in the test with SNB-78 CNS, in the test on SNB-75 CNS and in the test with LOX IMVI melanoma was above 100 µM throughout.
`C=C1C(=O)O[C@H]2[C@H]1CC/C(COC(=O)C(=O)c1cn(Cc3ccccc3)c3ccccc13)=C\CC[C@@]1(C)O[C@@H]21`: the GI50 in the test with MDA-MB-231 breast is 2.17 µM; with HS 578T breast, 3.35 µM; in the test on KM12 colon, 3.06 µM; in the test with BT-549 breast, 1.8 µM; in the test with SNB-75 CNS, 1.83 µM; in the test with LOX IMVI melanoma, 1.21 µM. The TGI with MDA-MB-231 breast amounted to 5.01 µM; in the test on HS 578T breast, 29.9 µM; with KM12 colon, 11.5 µM; with BT-549 breast, 4.1 µM; in the test with SNB-75 CNS, 8.4 µM; in the test on LOX IMVI melanoma, 2.57 µM.
Consider `Cc1cc(S(=O)(=O)Nc2nnc(-c3ccccc3)c(-c3ccccc3)n2)c(SCC(N)=O)cc1Cl`, for which the GI50 in the test with MDA-MB-231 breast is 36.3 µM; in the test with HS 578T breast, 32.5 µM; in the test with KM12 colon, 37 µM; with BT-549 breast, 27.4 µM; in the test with SNB-75 CNS, above 100 µM; in the test on LOX IMVI melanoma, 34.6 µM. Moreover, the TGI in the test with MDA-MB-231 breast is above 100 µM; with HS 578T breast, above 100 µM; with KM12 colon, above 100 µM; with BT-549 breast it was 90.6 µM; in the test on SNB-75 CNS, above 100 µM; in the test on LOX IMVI melanoma, 85.1 µM.
In the case of `CN1C(=O)c2cccc3cc([N+](=O)[O-])cc(c23)C1=O`, the TGI in the test with MDA-MB-231 breast, in the test with HS 578T breast, with KM12 colon, in the test on BT-549 breast, in the test on SNB-75 CNS and in the test on LOX IMVI melanoma was above 10 µM throughout.
For `COc1cc2ncnc(Nc3ccc(C)c(O)c3)c2cc1OC`, the GI50 in the test on MDA-MB-231 breast was 17.1 µM; with HS 578T breast it was 5.36 µM; with KM12 colon it was above 25 µM; with BT-549 breast, 12.4 µM; with SNB-75 CNS, 4.9 µM; in the test on LOX IMVI melanoma, 10.3 µM. Further, the TGI in the test on MDA-MB-231 breast was above 25 µM; with HS 578T breast, 18.8 µM; in the test on KM12 colon, above 25 µM; in the test on BT-549 breast it was above 25 µM; in the test with SNB-75 CNS it was above 24 µM; with LOX IMVI melanoma, above 25 µM.
As to `CC(=O)[O-].CCN(CC)c1ccc(C=NCCN=Cc2ccc(N(CC)CC)cc2[O-])c([O-])c1.[Mn+3]`, the GI50 in the test with KM12 colon is 17.8 µM; with LXFL 529 NSCLC, 22.5 µM; in the test on SNB-78 CNS, 45.1 µM; with HOP-18 NSCLC, 18.7 µM; with SNB-75 CNS, 22.1 µM; with LOX IMVI melanoma, 20.3 µM. For the same molecule, the TGI is 33.7 µM in the test on KM12 colon; 44.1 µM with LXFL 529 NSCLC; above 100 µM with SNB-78 CNS; 35.5 µM in the test with HOP-18 NSCLC; 58.2 µM with SNB-75 CNS; 37.6 µM in the test on LOX IMVI melanoma.
For the molecule `CCCCC(O)(c1ccc(Cl)cc1)C(CN1CCOCC1)c1ccc(Cl)cc1` (stereo unspecified), the GI50 with MDA-MB-231 breast is 12.7 µM; in the test on HS 578T breast, 16.8 µM; in the test with KM12 colon it was 12.2 µM; in the test with BT-549 breast, 15.7 µM; with SNB-75 CNS, 16.8 µM; in the test with LOX IMVI melanoma, 14.4 µM. For the same molecule, the TGI in the test on MDA-MB-231 breast was found to be 27.7 µM; in the test with HS 578T breast, 46.5 µM; with KM12 colon, 29.1 µM; in the test with BT-549 breast, 31 µM; with SNB-75 CNS it was 44.7 µM; in the test with LOX IMVI melanoma, 28.3 µM.
As for `NC(N)=N/N=C(\c1nc2ccc([N+](=O)[O-])cc2[nH]c1=O)C(O)c1ccc([N+](=O)[O-])cc1` (stereo unspecified), the TGI with XF 498 CNS, in the test on KM12 colon, with LXFL 529 NSCLC, in the test with SNB-78 CNS, in the test with SNB-75 CNS and in the test on LOX IMVI melanoma was above 100 µM in each case.
As for `Cc1cccc(NC(=O)C(=O)C(C(=O)c2ccc3ccccc3c2)C2OC(=O)c3ccccc32)c1C` (stereo unspecified), the TGI is 9.47 µM in the test with XF 498 CNS; 51.7 µM in the test with KM12 colon; 22.4 µM in the test with LXFL 529 NSCLC; above 100 µM in the test on SNB-78 CNS; 42.9 µM with SNB-75 CNS; 30.4 µM in the test on LOX IMVI melanoma.
